≈ marks a conversion by molar mass, not a printed value.
Tests used:
4T1 cells [4T1细胞] [1] = test: In vitro cytotoxicity test (MTT, 72 h); settings: Mus musculus, 4T1, 72 h
4T1 cells [4T1细胞] [2] = test system: 4T1 cells [4T1细胞]

Row | SMILES | IC50 (4T1 cells [4T1细胞] [1]) [µg/mL] | cytotoxicity (in words) (4T1 cells [4T1细胞] [2])
1 | CC(=O)O[C@@]12CO[C@@H]1C[C@H](O)[C@@]1(C)C(=O)[C@H](O)C3=C(C)[C@@H](OC(=O)[C@H](O)[C@@H](NC(=O)OC(C)(C)C)c4ccccc4)C[C@@](O)([C@@H](OC(=O)c4ccccc4)[C@H]21)C3(C)C [多西他赛] | 0.0265 ± 0.00136 (≈ 0.0328 µM) | –
2 | CCCCCC=CCC=CCCCCCCCC(=O)OC(C(=O)OC1CC2(O)C(OC(=O)c3ccccc3)C3C4(OC(C)=O)COC4CC(O)C3(C)C(=O)C(O)C(=C1C)C2(C)C)C(NC(=O)OC(C)(C)C)c1ccccc1 (stereo not drawn) [多西他赛亚油酸酯] | 0.0136 ± 0.00204 (≈ 0.0127 µM) | 细胞毒性强于多西他赛

Source: patent CN108310390A, “多西他赛亚油酸酯及其脂肪乳剂和应用” (Shenyang Pharmaceutical University, priority 2018, dated 2018)
